Measurements reported in ChEMBL document CHEMBL5137025, “Tuberculosis Drug Discovery: Challenges and New Horizons” (J Med Chem, 2022).
In brackets after ≈: the same amount, converted by molar mass.

Columns and labels:
[1] = tested on: Mycobacterium tuberculosis; assay type: functional; details: H37Rv, time 6 day
[2] = tested on: Mycobacterium tuberculosis; assay type: functional, H37Rv; details: dose 18 mg/kg; time 8 day
[3] = Half life in mouse; assay type: ADME, organism-based; details: in vivo
[4] = tested on: Mycobacterium tuberculosis; assay type: functional; details: H37Rv, 336 h, time 14 day
[5] = tested on: Mycobacterium tuberculosis; assay: Antibacterial activity against Mycobacterium tuberculosis in acute Mtb infection mouse model assessed as reduction in log10 CFU at 200 mg/kg for 3 weeks; assay type: functional
[6] = tested on: Mycobacterium tuberculosis; assay type: functional; details: H37Rv, 336 h, time 14 day; remark: listed apart in the source
[7] = tested on: Mycobacterium tuberculosis; assay: Antibacterial activity against Mycobacterium tuberculosis in acute Mtb infection mouse model assessed as reduction in log10 CFU at 200 mg/kg for 3 weeks in presence of Rifampicin; assay type: functional
[8] = tested on: Mycobacterium tuberculosis; assay type: functional; details: H37Rv, time 6 day; remark: listed apart in the source
HepG2 [9] = assay: Cytotoxicity against human HepG2 cells assessed as reduction in cell viability treated for 3 days by resazurin reduction microplate assay; assay type: functional; details: HepG2, 72 h, time 3 day
[10] = tested on: Mycobacterium tuberculosis; assay type: functional, H37Rv; details: dose 100 mg/kg; route po; time 10 day
[11] = Solubility of the compound; assay type: physicochemical
HepG2 [12] = assay: Cytotoxicity against human HepG2 cells; assay type: functional
[13] = tested on: Mycobacterium tuberculosis; assay: Antibacterial activity against Mycobacterium tuberculosis in acute Mtb infection C57BL/6J mouse model assessed as reduction in log10 CFU in lungs at 350 mg/kg, po for 8 days; assay type: functional; details: time 8 day
[14] = tested on: Mycobacterium tuberculosis; assay: microbe, parasite or virus in culture; details: H37Rv
Description: Antibacterial activity against Mycobacterium tuberculosis H37Rv assessed as inhibition of bacterial growth

[15] = tested on: Mycobacterium tuberculosis; assay type: functional, H37Rv; details: dose 200 mg/kg; route po; time 10 day
[16] = tested on: Mycobacterium tuberculosis; assay type: functional, H37Rv; details: dose 25 mg/kg; route ig; time 3 weeks
[17] = Inhibition of Mycobacterium tuberculosis ASADH expressed in Escherichia coli BL21
HepG2 [18] = assay: Cytotoxicity against human HepG2 cells by MTT assay; assay type: functional
[19] = Cytotoxicity against African green monkey Vero cells by MTT assay; assay type: toxicity, cell-based; details: chlorocebus sabaeus
[20] = tested on: Mycobacterium tuberculosis; assay type: functional, H37Rv; details: dose 20-200 mg/kg; route po; time 4 weeks
[21] = tested on: Mycobacterium tuberculosis; assay type: functional; details: H37Rv, 168 h, time 7 day
[22] = Stability in mouse liver microsome assessed as half life by Reverse-phase HPLC analysis; assay type: ADME; details: liver microsomes
[23] = Protein binding in human plasma incubated for 5 hrs by LC-MS/MS analysis; assay type: ADME, cell-free; details: read-out: PPB (converted)
[24] = tested on: Mycobacterium tuberculosis; assay type: functional, H37Rv; details: dose 100 mg/kg; route po; time 4 weeks
[25] = target: Voltage-gated inwardly rectifying potassium channel KCNH2 (Homo sapiens, UniProt Q12809)
[26] = tested on: Mycobacterium tuberculosis; assay: Antibacterial activity against Mycobacterium tuberculosis in acute Mtb infection mouse model assessed as reduction in log10 CFU at 25 mg/kg treated for 3 weeks; assay type: functional
[27] = Inhibition of bacterial DdlA; parameters: species or system Bacteria
[28] = Solubility of the compound in PBS at pH 7.4 incubated for 24 hrs by LC-MS analysis; assay type: physicochemical
[29] = Metabolic stability in CD-1 mouse liver microsomes assessed as half life measured for 5 to 40 mins by LC-MS/MS analysis; assay type: ADME, Microsome; details: time 5-40 min
[30] = tested on: Mycobacterium tuberculosis; assay type: functional, H37Rv; details: dose 10 mg/kg; route po; time 2 weeks
[31] = tested on: Mycobacterium tuberculosis; assay: Antibacterial activity against Mycobacterium tuberculosis infected in macrophage assessed as inhibition of bacterial growth; assay type: functional, organism-based
[32] = tested on: Mycobacterium tuberculosis; assay type: functional; details: H37Rv
[33] = tested on: Mycobacterium tuberculosis; assay: Antibacterial activity against Mycobacterium tuberculosis infected in macrophage assessed as inhibition of bacterial growth in presence of Ethionamide; assay type: functional, organism-based
[34] = tested on: Mycobacterium tuberculosis; assay: Antibacterial activity against Mycobacterium tuberculosis Beijing strain in acute Mtb infection BALB/c mouse model assessed as reduction in log10 CFU in lungs at 50 mg/kg, po for 3 weeks; assay type: functional

Chain of Voltage-gated inwardly rectifying potassium channel KCNH2 (Q12809 whole entry): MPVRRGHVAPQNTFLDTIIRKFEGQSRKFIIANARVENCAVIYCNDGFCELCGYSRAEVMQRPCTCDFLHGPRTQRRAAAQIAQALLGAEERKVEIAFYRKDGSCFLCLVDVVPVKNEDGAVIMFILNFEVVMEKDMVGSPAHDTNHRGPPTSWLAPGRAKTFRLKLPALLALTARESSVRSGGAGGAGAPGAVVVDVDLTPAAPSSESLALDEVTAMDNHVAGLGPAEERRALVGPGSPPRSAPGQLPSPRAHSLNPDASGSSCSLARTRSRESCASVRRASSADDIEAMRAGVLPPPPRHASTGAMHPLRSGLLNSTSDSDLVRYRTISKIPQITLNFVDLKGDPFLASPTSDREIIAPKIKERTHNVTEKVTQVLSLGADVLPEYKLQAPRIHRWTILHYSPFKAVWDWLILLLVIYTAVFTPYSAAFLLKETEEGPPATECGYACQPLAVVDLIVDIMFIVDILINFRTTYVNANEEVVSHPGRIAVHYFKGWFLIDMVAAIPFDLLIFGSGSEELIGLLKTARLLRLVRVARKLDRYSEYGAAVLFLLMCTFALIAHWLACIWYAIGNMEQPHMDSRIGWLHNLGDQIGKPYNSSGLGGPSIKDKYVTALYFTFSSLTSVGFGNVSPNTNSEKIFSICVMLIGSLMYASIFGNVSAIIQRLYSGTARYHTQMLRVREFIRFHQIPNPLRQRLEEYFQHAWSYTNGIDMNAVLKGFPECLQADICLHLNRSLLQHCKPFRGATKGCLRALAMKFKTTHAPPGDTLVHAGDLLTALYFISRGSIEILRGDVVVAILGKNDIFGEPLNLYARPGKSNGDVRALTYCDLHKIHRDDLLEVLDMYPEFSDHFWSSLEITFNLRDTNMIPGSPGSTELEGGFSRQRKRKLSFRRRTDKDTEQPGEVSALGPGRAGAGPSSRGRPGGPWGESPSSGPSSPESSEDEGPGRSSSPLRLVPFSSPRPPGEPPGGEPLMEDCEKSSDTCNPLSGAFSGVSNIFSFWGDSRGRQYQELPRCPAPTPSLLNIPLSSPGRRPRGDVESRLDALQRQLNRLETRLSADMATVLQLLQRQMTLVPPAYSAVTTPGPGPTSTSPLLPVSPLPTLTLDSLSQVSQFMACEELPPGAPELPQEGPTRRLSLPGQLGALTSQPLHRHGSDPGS

## CCCCS(=O)(=O)Nc1ccc2[nH]ncc2c1
[1]
  MIC: 1.2 µM (≈ 0.304 µg/mL)
[2]
  Activity: 2 log10CFU

## C[C@@H](O)[C@H]1C(=O)N2C(C(=O)[O-])=C(SC3Cn4cnc[n+]4C3)[C@H](C)[C@H]12 (stereo not given in full) [BIAPENEM]
[3]
  half-life: 17.4 min
[4]
  MIC90: 7.1 µM (≈ 2.49 µg/mL)
[5]
  Activity: 5.3 log10CFU
[6]
  MIC90: 1.7 µM (≈ 0.596 µg/mL)
[7]
  Activity: 8.6 log10CFU

## O=C(/C=C/c1nccs1)N1CCN(Cc2ccc3c(c2)OCO3)CC1
[8]
  MIC90: 0.84 µM (≈ 0.3 µg/mL)
HepG2 [9]
  CC50: 210 µM
[10]
  Activity: 0.9 log10CFU

## O=S1(=O)C[C@H](O)[C@@H](N2CCN(c3ccc(F)cc3Cl)CC2)C1
[11]
  solubility: 434 µM (≈ 151 µg/mL)
HepG2 [12]
  CC50: > 100 µM
[13]
  Activity: 1.4 log10CFU
[14]
  MIC: 2.3 µM (≈ 0.802 µg/mL)

## O=C(/C=C/c1cccs1)N1CCN(Cc2ccc3c(c2)OCO3)CC1
[8]
  MIC90: 0.14 µM (≈ 0.0499 µg/mL)
[15]
  Activity: 0.4 log10CFU
HepG2 [9]
  CC50: 140 µM

## O=C(Nc1nnc(C2CCCO2)o1)c1ccc([N+](=O)[O-])o1 (stereo not given)
[16]
  Activity: 1.7 log10CFU
[17]
  IC50: 2000 nM
HepG2 [18]
  CC50: > 218 µM
[19]
  CC50: > 218 µM
[14]
  MIC: 1.7 µM (≈ 0.5 µg/mL)

## Cc1n[nH]c2ccc(NS(=O)(=O)CCCCF)cc12
[20]
  Activity: >2 log10CFU
[21]
  MIC: 0.2 µM (≈ 0.0571 µg/mL)
[22]
  half-life: 28 min
[23]
  fraction unbound at 5 h: 0.23
[24]
  Activity: 2 log10CFU
[25]
  IC50: > 50 µM

## OC1(c2ccc(OC(F)F)cc2)C[N+](c2ccccc2)=C2CCCCN21.[Br-] (stereo not given)
HepG2 [12]
  CC50: 263 µM
[26]
  Activity: 1.2 log10CFU
[27]
  IC50: 6.2 µM
[14]
  MIC: 1.1 µM

## O=C(NCCC(F)(F)F)c1ccc(-c2noc(C3CC3)n2)cc1
[28]
  solubility at 24 h: 30 µM (≈ 9.76 µg/mL)
[29]
  half-life: 19 min
[30]
  Activity: >2 log10CFU
[31]
  EC50: 72 nM

## O=C(CCC(F)(F)F)N1CCC2(CC1)CC(c1ccccc1)=NO2
[3]
  half-life: 19 min
[32]
  MIC: 0.3 µM (≈ 0.102 µg/mL)
[33]
  EC50: 20 nM
[34]
  Activity: 1 log10CFU
